The supplement of paper PMC11451515

Legend:
Test in all cases: AUC of viability dose-response curve (% viability x log10 dose units); higher = less sensitive
Settings in all cases: 48 h
NOMO1 = tested on: NOMO1
Summary of the method: (§1)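 Viability of medium-adapted leukemia cells was measured by CellTiter-Glo One luminescence after 48 h at 37°C with library compounds in DMSO. Doses were 11 threefold steps from 47 μM to 0.79 nM, in 1536-well plates at 500 or 1000 cells/well. Signals were normalised per plate to DMSO and cell-free wells and fitted with a four-parameter log-logistic model on log10 dose. Area under the curve was integrated by trapezoidal rule, with curves exceeding full viability scaled and failed quality-control curves removed.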

P12-Ichikawa = tested on: P12-Ichikawa
Summary of the method: as §1

SEM cells = tested on: SEM cells
Summary of the method: as §1

[1] = RPMI 5 mM glucose + 10% dialyzed FBS

SMILES | AUC of viability dose-response curve (NOMO1; HPLM + 10% dialyzed FBS) | AUC of viability dose-response curve (NOMO1; RPMI 5 mM glucose + 10% FBS) | AUC of viability dose-response curve (NOMO1; [1]) | AUC of viability dose-response curve (P12-Ichikawa; HPLM + 10% dialyzed FBS) | AUC of viability dose-response curve (P12-Ichikawa; RPMI 5 mM glucose + 10% FBS) | AUC of viability dose-response curve (P12-Ichikawa; [1]) | AUC of viability dose-response curve (SEM cells; HPLM + 10% dialyzed FBS) | AUC of viability dose-response curve (SEM cells; RPMI 5 mM glucose + 10% FBS) | AUC of viability dose-response curve (SEM cells; [1])
C[N]1N=CC2=C1C=C(C(=C2)OC3=CC=C(NC(=O)\C4=C\C=C(\C)N(C4=O)C5=CC=C(F)C=C5)C=C3F)C6=C[NH]N=C6 | 401 | 410 | 413 | 396 | 397 | 404 | 268 | 266 | 255
O=C(NCCO[N+](=O)[O-])c1cccnc1 | 463 | 472 | 471 | 471 | 474 | 475 | 461 | 455 | 461
C=C[C@H]1CN2CCC1C[C@@H]2[C@@H](O)c1ccnc2ccccc12 (stereo partly specified) | 453 | 422 | 420 | 443 | 436 | 429 | 448 | 435 | 451
CC(=O)OCC(=O)[C@@]12OC(C)(C)O[C@@H]1C[C@H]3[C@@H]4C[C@H](F)C/5=C/C(=O)/C=C\[C@]5(C)[C@@]4(F)[C@@H](O)C[C@]23C | 474 | 440 | 420 | 393 | 370 | 344 |  |  | 
CCOC(CN1C(=O)[C@](CC(=O)Nc2ccc(C)cc2)(NC(=O)Nc2ccc(C)cc2)c2ccccc21)OCC | 448 | 460 | 458 | 458 | 461 | 460 | 447 | 437 | 466
O=[N+]([O-])c1ccc(Nc2ccccc2-c2ccccc2)c2nonc12 | 451 | 432 | 418 | 432 | 432 | 433 |  |  | 
C/C(=C\c1csc(C)n1)[C@@H]1C[C@@H]2O[C@@H]2CCC[C@H](C)[C@H](O)[C@@H](C)C(=O)C(C)(C)[C@@H](O)CC(=O)O1 | 146 | 93 | 138 |  |  |  |  |  | 
Cn1cc(-c2cnn3c(N)c(Br)c([C@@H]4CCCNC4)nc23)cn1 | 352 | 322 | 314 | 358 | 342 | 339 | 300 | 344 | 289
CN1CC/C(CC1)=C3\c4ccccc4CC(=O)c2sccc23 | 462 | 463 | 463 | 472 | 467 | 470 | 460 | 472 | 473
Cn1cnc(-c2cc3nccc(Oc4ccc(NC(=S)NC(=O)Cc5ccccc5)cc4F)c3s2)c1 | 393 | 395 | 397 | 391 | 374 | 395 |  |  | 
O=C(O)[C@@H](c1ccc(OCc2ccc3ccccc3n2)cc1)C1CCCC1 | 466 | 470 | 454 | 450 | 435 | 458 |  |  | 
CC(=O)Oc1cc2c(s1)CCN(C(C(=O)C1CC1)c1ccccc1F)C2.Cl (stereo unspecified) | 386 | 396 | 396 | 468 | 455 | 452 | 466 | 431 | 453
COc1cccc2c(NCc3ccccc3)nc(-n3c(N)nc4ccccc43)nc12 | 453 | 457 | 455 | 428 | 435 | 439 | 369 | 367 | 379
COc1nccc(-c2c(-c3ccc(F)cc3)ncn2C2CCC(O)CC2)n1 (stereo unspecified) | 463 | 458 | 465 | 443 | 465 | 462 | 459 | 320 | 438
C[C@H]1C[C@H]2[C@@H]3CCC4=CC(=O)C=C[C@]4(C)[C@H]3C(=O)C[C@]2(C)[C@@]1(O)C(=O)CO | 442 | 407 | 394 | 443 | 454 | 402 | 390 | 366 | 401
CCCC1=N[N](C)C2=C1\N=C(/NC2=O)C3=CC(=CC=C3OCC)[S+]([O-])(=O)N4CCN(C)CC4 | 400 | 385 | 403 | 407 | 385 | 381 | 349 | 356 | 364
O=C1CCC[C@@H]2[C@H]3CCC[N+]4([O-])CCC[C@@H](CN12)[C@@H]34 (stereo partly specified) | 364 | 374 | 369 | 463 | 435 | 422 | 373 | 406 | 398
NCCCCCC(=O)O | 469 | 459 | 447 | 463 | 469 | 463 | 398 | 459 | 389
C=CCc1cc(OC)c(O)c(C(=O)NCCO)c1 | 449 | 462 | 446 | 457 | 460 | 466 | 448 | 442 | 454
CN1CCN(Cc2ccc(NC(=O)Nc3ccc(Oc4cc(NC(=O)C5CC5)ncn4)cc3)cc2C(F)(F)F)CC1 | 271 | 278 | 275 | 285 | 289 | 291 |  |  | 
C[C@H](NC(=O)Cc1cc(F)cc(F)c1)C(=O)N[C@@H]1C(=O)N(C)c2ccccc2-c2ccccc21 | 386 | 417 | 434 |  |  |  | 373 | 309 | 362
FC1=CC=C(CN2\C=C/C=C(/C(=O)N[C@@H](COC3=CC4=C(NC(=O)N4)C=C3)C5=CC=CC=C5)C2=O)C=C1F |  |  |  | 430 | 365 | 375 | 373 | 409 | 365
FC(F)(F)C1=CC=C2C(SCCCCCO\C3=C\O\C(CN4CCOCC4)=C/C3=O)=CC=NC2=C1 | 470 | 477 | 469 | 464 | 457 | 461 |  |  | 
CNC(=O)c1ccc(N2C(=S)N(c3ccc(C#N)c(C(F)(F)F)c3)C(=O)C2(C)C)cc1F | 457 | 472 | 460 | 453 | 456 | 457 |  |  | 
O=C(c1ccc(/C=C/c2n[nH]c3ccccc23)cc1)N1CCNCC1 | 434 | 387 | 383 | 332 | 331 | 346 |  |  | 
O=C(NCCCNc1nc(Nc2cccc(NC(=O)N3CCCC3)c2)ncc1I)c1cccs1 | 375 | 381 | 384 | 407 | 400 | 401 |  |  | 
COCCCOc1ccnc(C[S+]([O-])c2nc3ccccc3[nH]2)c1C (stereo unspecified) | 467 | 475 | 460 | 464 | 450 | 449 |  |  | 
